Test results from PMC5686105, “The industrial anaerobe Clostridium acetobutylicum uses polyketides to regulate cellular differentiation” (Nature Communications, 2017).

Key:
PKS (ca_c3355) [1] = molecular target: T1, PKS (ca_c3355) (Clostridium acetobutylicum, UniProt Q97DW5); assay: in vitro product assay by LC-MS; assay type: biochemical; conditions: 100 mM phosphate pH 7.0, 2 mM malonyl-CoA, 2 mM NADPH, 8 uM PKS, room temperature, 2 h; KR domain reductant
PKS (ca_c3355) [2] = molecular target: T1, PKS (ca_c3355); assay: in vitro product assay by LC-MS; […] acyl loading by SDS-PAGE autoradiography; assay type: biochemical; conditions: 100 mM phosphate pH 7.0, 2 mM malonyl-CoA, 8 uM PKS, room temperature, 2 h; covalent acyl-S-enzyme intermediate seen with labelled compound (made in situ by MatB, pH 8.0, 25 °C)

T1 sequence (Q97DW5 1-1795): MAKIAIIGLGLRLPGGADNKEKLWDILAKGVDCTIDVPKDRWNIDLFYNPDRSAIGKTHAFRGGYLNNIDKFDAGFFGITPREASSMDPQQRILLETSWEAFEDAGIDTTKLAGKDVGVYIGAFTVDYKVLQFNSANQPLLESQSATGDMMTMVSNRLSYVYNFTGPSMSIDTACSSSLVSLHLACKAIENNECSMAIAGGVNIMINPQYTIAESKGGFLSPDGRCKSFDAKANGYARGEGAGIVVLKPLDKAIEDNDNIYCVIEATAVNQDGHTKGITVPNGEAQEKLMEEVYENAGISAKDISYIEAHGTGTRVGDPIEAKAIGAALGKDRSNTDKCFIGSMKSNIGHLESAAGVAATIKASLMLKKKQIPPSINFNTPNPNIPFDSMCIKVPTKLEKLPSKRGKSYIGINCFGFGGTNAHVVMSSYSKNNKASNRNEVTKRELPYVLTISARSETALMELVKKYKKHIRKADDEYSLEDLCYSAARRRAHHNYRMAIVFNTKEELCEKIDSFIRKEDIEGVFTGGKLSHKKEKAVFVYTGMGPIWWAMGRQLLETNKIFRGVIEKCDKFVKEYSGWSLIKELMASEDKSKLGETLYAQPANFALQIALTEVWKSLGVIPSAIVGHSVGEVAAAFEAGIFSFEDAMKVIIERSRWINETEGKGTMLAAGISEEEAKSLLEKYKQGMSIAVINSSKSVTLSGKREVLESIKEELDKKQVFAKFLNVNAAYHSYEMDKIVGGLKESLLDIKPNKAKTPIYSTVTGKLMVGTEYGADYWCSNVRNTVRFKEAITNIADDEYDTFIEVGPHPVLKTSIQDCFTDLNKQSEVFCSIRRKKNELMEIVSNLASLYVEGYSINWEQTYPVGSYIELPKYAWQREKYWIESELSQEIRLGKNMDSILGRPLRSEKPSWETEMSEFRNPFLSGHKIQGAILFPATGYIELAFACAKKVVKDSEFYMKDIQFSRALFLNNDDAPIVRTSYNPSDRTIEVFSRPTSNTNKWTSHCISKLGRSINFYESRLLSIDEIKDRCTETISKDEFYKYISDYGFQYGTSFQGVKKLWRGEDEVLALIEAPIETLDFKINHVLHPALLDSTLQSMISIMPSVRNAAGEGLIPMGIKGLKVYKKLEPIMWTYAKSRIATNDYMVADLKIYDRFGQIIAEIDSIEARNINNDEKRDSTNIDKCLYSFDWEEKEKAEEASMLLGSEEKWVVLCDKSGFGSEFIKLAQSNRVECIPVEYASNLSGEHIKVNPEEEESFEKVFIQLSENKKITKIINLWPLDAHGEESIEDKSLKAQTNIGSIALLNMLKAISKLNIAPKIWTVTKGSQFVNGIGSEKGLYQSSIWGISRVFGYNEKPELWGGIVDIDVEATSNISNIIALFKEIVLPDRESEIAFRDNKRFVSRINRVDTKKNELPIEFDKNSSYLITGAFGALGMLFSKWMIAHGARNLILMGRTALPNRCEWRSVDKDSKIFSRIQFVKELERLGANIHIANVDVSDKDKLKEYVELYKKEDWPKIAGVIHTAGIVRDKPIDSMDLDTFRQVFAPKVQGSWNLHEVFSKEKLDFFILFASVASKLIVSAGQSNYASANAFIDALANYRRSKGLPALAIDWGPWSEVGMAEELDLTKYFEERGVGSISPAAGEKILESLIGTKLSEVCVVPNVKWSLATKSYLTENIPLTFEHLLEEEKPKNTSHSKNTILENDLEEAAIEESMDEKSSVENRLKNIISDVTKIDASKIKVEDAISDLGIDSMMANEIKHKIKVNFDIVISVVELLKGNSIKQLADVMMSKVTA

SMILES	in vitro product assay by LC-MS (PKS (ca_c3355) [1])	in vitro product assay by LC-MS; 14C acyl loading by SDS-PAGE autoradiography (PKS (ca_c3355) [2])
NC(=O)C1=CN([C@@H]2O[C@H](COP(=O)(O)OP(=O)(O)OC[C@H]3O[C@@H](n4cnc5c(N)ncnc54)[C@H](OP(=O)(O)O)[C@@H]3O)[C@@H](O)[C@H]2O)C=CC1 [NADPH]	Addition of NADPH to this reaction enabled function of the KR domain	–
CC(C)(COP(=O)(O)OP(=O)(O)OC[C@H]1O[C@@H](n2cnc3c(N)ncnc32)[C@H](O)[C@@H]1OP(=O)(O)O)[C@@H](O)C(=O)NCCC(=O)NCCSC(=O)CC(=O)O [malonyl-CoA]	–	in vitro reconstitution of the activity of PKS with malonyl-CoA showed a dominant product
